Assay [1] can be described thus: Quinine-supplemented diet in wild type mice over 12 weeks: body weight, body composition (NMR), food intake. Type of assay: in vivo. The settings on record: for mean fat mass at the end of the trial: control 7.65 g±0.47. How it is done: Body composition was determined on […] mice by nuclear magnetic resonance (NMR) using an EchoMRI-900 Body Composition Analyzer (Echo Medical System, LLC, Houston, Tex., USA).
Three groups of wild type male C57BL6 mice 3 months old, 20 mice per group, were fed either a semi-synthetic (AlN) diet, or AlN diet with 0.1% quinine, or AlN diet with 0.01% quinine.
Body weight was measured weekly, body composition was measured monthly, food and fluid intake were measured twice a week over a period of 12 weeks.

In another assay the target is T1, Trpm5 (Mus musculus, UniProt Q9JJH7).
T1 sequence (Q9JJH7 1-1158): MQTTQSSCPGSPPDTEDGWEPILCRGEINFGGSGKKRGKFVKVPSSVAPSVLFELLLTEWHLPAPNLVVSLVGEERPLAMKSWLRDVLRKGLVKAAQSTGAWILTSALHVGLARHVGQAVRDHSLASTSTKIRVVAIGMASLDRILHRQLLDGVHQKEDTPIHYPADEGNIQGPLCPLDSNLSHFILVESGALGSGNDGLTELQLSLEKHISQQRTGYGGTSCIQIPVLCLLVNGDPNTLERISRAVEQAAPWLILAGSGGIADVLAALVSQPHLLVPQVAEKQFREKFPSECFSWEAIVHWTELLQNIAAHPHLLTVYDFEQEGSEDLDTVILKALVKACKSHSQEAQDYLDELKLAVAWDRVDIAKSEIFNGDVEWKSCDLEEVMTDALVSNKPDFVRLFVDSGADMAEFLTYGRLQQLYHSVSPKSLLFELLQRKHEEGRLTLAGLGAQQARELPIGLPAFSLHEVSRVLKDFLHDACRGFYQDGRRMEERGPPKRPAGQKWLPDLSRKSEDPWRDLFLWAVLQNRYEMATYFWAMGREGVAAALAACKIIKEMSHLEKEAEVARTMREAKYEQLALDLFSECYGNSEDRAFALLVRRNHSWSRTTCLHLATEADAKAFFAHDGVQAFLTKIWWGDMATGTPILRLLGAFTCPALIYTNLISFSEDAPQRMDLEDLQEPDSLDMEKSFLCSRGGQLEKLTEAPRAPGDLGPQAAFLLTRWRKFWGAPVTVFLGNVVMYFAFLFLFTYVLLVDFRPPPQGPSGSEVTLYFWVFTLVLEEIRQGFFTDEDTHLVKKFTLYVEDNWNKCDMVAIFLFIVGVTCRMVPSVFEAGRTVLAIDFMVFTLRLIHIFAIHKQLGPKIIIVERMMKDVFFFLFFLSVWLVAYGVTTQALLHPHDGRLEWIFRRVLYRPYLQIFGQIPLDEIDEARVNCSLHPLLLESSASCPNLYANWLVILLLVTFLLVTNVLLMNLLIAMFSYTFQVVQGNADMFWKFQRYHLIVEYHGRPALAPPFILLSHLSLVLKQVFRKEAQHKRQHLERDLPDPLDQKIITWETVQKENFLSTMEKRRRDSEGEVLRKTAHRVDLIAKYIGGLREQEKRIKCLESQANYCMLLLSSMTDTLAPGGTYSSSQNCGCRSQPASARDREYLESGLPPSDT
Particulars: Talayera et al, 2008, FASEB J.; cited from earlier work.

“Also recorded” adds a separate entry of the source.

As for `C=C[C@H]1CN2CC[C@H]1C[C@H]2[C@H](O)c1ccnc2ccc(OC)cc12` [quinine, (R)-(6-methoxyquinolin-4-yl)((2S,4S,8R)-8-vinylquinuclidin-2-yl)methanol], the “mean fat mass at the end of the trial” value in assay [1] (wild type male C57BL6 mice, AlN diet with 0.01% quinine, 12 weeks, NMR) was determined as 7.9675 g; in assay [1] (wild type male C57BL6 mice, AlN diet with 0.1% quinine, 12 weeks, NMR, p<0.01 compared to control), 5.524 g. The Body weight gain result is recorded as “not different from control” in assay [1] (wild type male C57BL6 mice, AlN diet with 0.01% quinine, 12 weeks, vs control diet) and “gained less weight; also recorded: significantly lower” in assay [1] (wild type male C57BL6 mice, AlN diet with 0.1% quinine, 12 weeks, vs control diet (p<0.01)). Moreover, the lean mass entry in assay [1] (wild type male C57BL6 mice, diet with 0.1% or 0.01% quinine vs control diet, 12 weeks, NMR) was “no difference between groups”. Moreover, the Total food intake entry in assay [1] (wild type male C57BL6 mice, diet with 0.1% or 0.01% quinine vs control diet, over 12 weeks) is given as “food intake was not different between the groups; also recorded: no difference in food intake between groups”. In addition, the “fat mass gain vs control diet” value in assay [1] (wild type mice, 0.1% quinine supplemented diet, 12 weeks) was “gained less weight and fat mass”. Further, the “inhibition of Trpm5” value on Trpm5 was “inhibitor of Trpm5”.
